Where two headings read alike, the source gives them in different places. Where a SMILES comes first, the peptide text is derived from it. [ ]: non-standard residue; d: D form. pS = N[C@@H](COP(=O)(O)O)C(=O)O

This note sets out measurements from patent US6207393A, “Inhibition of intracellular signal transduction by 14-3-3-binding peptides” (Washington University, priority 1999, dated 2001).

Experiment [1] deals with T1, 14-3-3 zeta (Homo sapiens, UniProt P63104).
T1 construct: made in house; host or cells: E. coli DH5α (vector pGEX-KT)
T1 sequence (P63104 1-245): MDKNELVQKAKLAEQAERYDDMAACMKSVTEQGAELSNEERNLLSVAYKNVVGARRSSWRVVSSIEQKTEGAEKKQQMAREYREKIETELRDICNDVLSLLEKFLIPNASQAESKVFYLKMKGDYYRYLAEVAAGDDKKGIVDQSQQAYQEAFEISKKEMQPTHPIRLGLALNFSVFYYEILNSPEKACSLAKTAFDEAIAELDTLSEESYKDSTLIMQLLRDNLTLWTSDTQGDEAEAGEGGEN
The experiment is described as follows: Surface plasmon resonance, GST-14-3-3 zeta binding to immobilized biotinylated Raf-259 peptide (binding and kinetics). Particulars: isoform zeta. The protocol: These experiments were performed using the BIAcore 2000 (Pharmacia). The basic principles and detection methods have been reviewed previously (Jonsson et al. Biotech. 11:620-7, 1991; Jonsson et al. Ann Bio Clin 51:19-26, 1993 which are incorporated by reference). In brief, 5 μl of the biotinylated raf-259 peptide (1 nM) was immobilized onto streptavidin-coated (SA5, Pharmacia) sensor chips at a flow rate of 5 μl/min at 25° C. […] To phosphorylate the immobilized peptides, 5 U of PKA in a buffer containing 200 μM ATP in 50 μl was infused over the chip at a flow rate of 2 μl/min at 30° C.
(§1) Because the surface plasmon resonance detects binding in real time, this method can be used to directly determine the rates of association (kon) and dissociation (koff). For these kinetic measurements, GST/14-3-3 fusion proteins were injected over a range of concentrations between 200 nM and 5 μM. The "on" rate, kon, was determined by calculating dR/dt for the initial linear portion of association using the Biaevaluation software (Pharmacia). Because ligand rebinding to the sensor chip can affect the "off" rate (koff, Panayotou et al. Mol Cell Biol 13:3567-76, 1993 which is incorporated by reference), we measured the "off" rate in the presence of 50 μM free ligand by using the coinject function of the Biacore. The "off" rate measured in the absence of 50 μM free ligand was approximately 10-fold lower.
The biotinylated, […] Raf-1 peptide (SEQ ID NO: 4) was coupled to avidin coated chip surface to study the kinetics of its binding to 14-3-3 zeta. The association rate was determined to be approximately 2.3×10^4 M^-1×s^-1 and the dissociation rate was determined to be approximately 2.8×10^-3 s^-1. To minimize the effects of protein rebinding to the surface of the sensor chip, the dissociation rate was measured in the presence of 50 μM free phosphorylated Raf-1 peptide.

In experiment [2] the target is T1, 14-3-3 zeta. The experiment in a line: Displacement of 32P-labeled phosphorylated Raf-259 peptide from immobilized GST/14-3-3 zeta (scintigraphy). It counts as binding. As to the method:
The 14-3-3 protein isoforms for use in binding studies with the above peptides were prepared as proteins fused with glutathione-S-transferase (GST) and immobilized to glutathione agarose beads. GST/14-3-3 fusion proteins were made by generating BamHI and EcoRI restriction endonuclease sites (underlined) at the 5' and 3' ends respectively of the 14-3-3 cDNAs by polymerase chain reaction (PCR) using the following isoform sequence specific pairs of primers: 14-3-3 beta, […] (SEQ ID NO: 11), […] (SEQ ID NO: 12); 14-3-3 eta […] (SEQ ID NO: 13), […] (SEQ ID NO: 14); 14-3-3 tau […] (SEQ ID NO: 15), […] (SEQ ID NO: 16); 14-3-3 zeta […] (SEQ ID NO: 17), […] (SEQ ID NO: 18). The cDNA products were digested with BamHI and EcoRI, subcloned into the vector pGEX-KT (Guan and Dixon, Anal Biochem 192: 262-7, 1991 which is incorporated by reference). The vector was used to transform the DH5α strain of E. Coli. GST-14-3-3 fusion protein expression in log-growth phase bacterial cultures was accomplished by induction with 100 μM isopropyl β-D-thiogalactopyranoside (IPTG; Gold Biotechnology, St. Louis) for 4 hours. Cells were disrupted by sonication and lysates, containing 1% Triton X-100, were incubated with glutathione agarose beads (Sigma, St. Louis) at 4° C. overnight. Fusion proteins were eluted by incubation with 10 mM reduced glutathione (Sigma, St. Louis) in phosphate buffered saline for 1 hour at room temperature, dialyzed in phosphate buffered saline and quantitated by Coomassie staining SDS polyacrylamine gels compared against bovine serum albumin standards.
The Raf-259 peptide (SEQ ID NO: 4) was phosphorylated in vitro using protein kinase A (PKA) and [^32 P]-γ-ATP following the manufacturers instruction (PKA, New England Biolabs) with 20 μCi of [^32 P]-γ-ATP (NEN-Dupont, 6000 Ci/mmol). The efficiency of phosphorylation was calculated to be between 7 and 12% based upon the specific activity of the labelled peptide.
The labeled peptide was then incubated with immobilized 14-3-3 zeta fusion protein and binding of the labelled peptide was measured. […] Binding was also sequence specific. […]

A further experiment has as its target T2, 14-3-3 eta (Homo sapiens, UniProt Q04917).
T2 construct: made in house; host or cells: E. coli DH5α (vector pGEX-KT)
T2 sequence (Q04917 1-246): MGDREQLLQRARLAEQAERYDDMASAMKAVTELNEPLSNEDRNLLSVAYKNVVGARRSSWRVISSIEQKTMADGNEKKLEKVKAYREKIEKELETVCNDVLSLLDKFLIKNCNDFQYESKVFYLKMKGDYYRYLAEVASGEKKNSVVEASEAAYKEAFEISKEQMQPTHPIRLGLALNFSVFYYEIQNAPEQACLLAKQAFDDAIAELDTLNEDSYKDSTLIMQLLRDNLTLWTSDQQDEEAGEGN
The experiment is described as follows: Surface plasmon resonance kinetics, 14-3-3 eta binding to phosphorylated Raf-259 peptide. The following applies: isoform eta. As to the method: as §1
There are seven known isoforms of 14-3-3 which form homo- and heterodimers in vivo. If different isoforms of 14-3-3 could bind to proteins with distinct specificities, heterodimeric forms of 14-3-3 might function as modular linker proteins, bringing together different proteins into a single complex. We were, therefore, interested in determining whether different 14-3-3 isoforms recognize phosphoserine in a sequence specific fashion. This hypothesis was tested by expressing and purifying three other 14-3-3 isoforms, eta, beta and tau, and measuring their affinity towards the panel of phosphorylated peptides generated above. Using the Surface Plasmon Resonance method, the "on" and "off" rates for 14-3-3 binding to the phosphorylated Raf-259 peptide were calculated (Table 6).
For orientation: SPR reads the build-up and loss of mass on a sensor chip optically.

For `CC(C)C[C@H](N)C(=O)N[C@@H](CO)C(=O)N[C@@H](CCC(N)=O)C(=O)N[C@@H](CCCNC(=N)N)C(=O)N[C@@H](CCC(N)=O)C(=O)N[C@@H](CCCNC(=N)N)C(=O)N[C@@H](CO)C(=O)N[C@H](C(=O)N[C@@H](COP(=O)(O)O)C(=O)N[C@H](C(=O)N1CCC[C@H]1C(=O)N[C@@H](CC(N)=O)C(=O)N[C@H](C(=O)N[C@@H](Cc1c[nH]cn1)C(=O)N[C@@H](C)C(=O)O)C(C)C)[C@@H](C)O)[C@@H](C)O` [pS-Raf-259] (H-LSQRQRST[pS]TPNVHA-OH), the Kd on 14-3-3 zeta [1] (read-out: KD) came to 122 nM; at 14-3-3 eta it was 128 nM. The koff worked out at 0.0028 s⁻¹ at 14-3-3 zeta [1] (read-out: koff) and 0.0029 s⁻¹ on 14-3-3 eta. The values for the kon on 14-3-3 zeta [1] (read-out: kon) and on 14-3-3 eta were 23000 M⁻¹ s⁻¹ and 22600 M⁻¹ s⁻¹, respectively. The IC50 at 14-3-3 zeta [2] (corrected for 7-12% efficiency of in vitro phosphorylation, read-out: true IC50) lay in the range of 70 to 240 nM; at 14-3-3 zeta [2] (not corrected for efficiency of phosphorylation, read-out: IC50), 1000 to 2000 nM.

One may read the Kd as the free concentration of one partner at which half of the binding sites on the other are occupied at equilibrium, for simple one-to-one binding. For orientation: koff means the first-order rate constant of dissociation. As usually defined, the kon is a measure of how fast the partners come together. What is called IC50 is the point on the concentration scale where inhibition reaches its midpoint.
